Reference: patent publication US12115157B2, “3-phenoxyazetidin-1-yl-heteroaryl pyrrolidine derivatives and the use thereof as medicament” (Boehringer Ingelheim International GmbH, priority 2021, dated 2024)

Columns and labels:
human plasma proteins = test: Human plasma protein binding assay (equilibrium dialysis); type: in vitro ADME; conditions: 1 μM, 2 hours, 37° C.
Procedure: Equilibrium dialysis (ED) technique was used to determine the approximate in vitro fractional binding of test compounds to plasma proteins. Dianorm Teflon dialysis cells (micro 0.2) were used. Each dialysis cell consists of a donor and an acceptor chamber, separated by an ultrathin semipermeable membrane with a 5 kDa molecular weight cut-off. Stock solutions for each test compound were prepared in DMSO at 1 mM and serially diluted to obtain a final test concentration of 1 μM. The subsequent dialysis solutions were prepared in plasma (supplemented with NaEDTA as anticoagulant), and aliquots of 200 μL test compound dialysis solution in plasma were dispensed into the donor (plasma) chambers. Aliquots of 200 μL dialysis buffer (100 mM potassium phosphate, pH 7.4) were dispensed into the buffer (acceptor) chamber. Incubation was carried out for 2 hours under rotation at 37° C. for establishing equilibrium.
At the end of the dialysis period, aliquots obtained from donor and acceptor chambers, respectively, were transferred into reaction tubes, spiked with Internal Standard solution and processed for HPLC-MS/MS analysis. Analyte concentrations were quantified in aliquots of samples by HPLC-MS/MS against external calibration curves.
Percent bound was calculated using the formula: % bound=(plasma concentration−buffer concentration/plasma concentration)×100

human GPR52 = human GPR52 (Homo sapiens (Human), UniProt Q9Y2T5); test: HTRF assay for direct cAMP measurement; type: cell-based; conditions: CHO-K1 cells stably expressing recombinant human GPR52, mean EC50
Sequence of human GPR52 (Q9Y2T5 whole entry): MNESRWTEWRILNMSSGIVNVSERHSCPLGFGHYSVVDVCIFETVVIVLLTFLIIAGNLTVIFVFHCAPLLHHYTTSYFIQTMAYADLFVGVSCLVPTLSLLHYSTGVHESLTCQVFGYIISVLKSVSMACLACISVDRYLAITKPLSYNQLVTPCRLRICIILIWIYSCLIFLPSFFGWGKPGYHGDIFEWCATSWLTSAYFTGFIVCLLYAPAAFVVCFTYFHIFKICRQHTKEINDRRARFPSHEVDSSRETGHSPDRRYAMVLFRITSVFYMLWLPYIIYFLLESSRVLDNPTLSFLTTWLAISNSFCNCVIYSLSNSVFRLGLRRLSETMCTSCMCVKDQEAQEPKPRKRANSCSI
Procedure: HTRF cAMP assays were performed using commercially available assay kits according to the manufacturer's instructions (cAMP Dynamic 2 Assay Kit; #62AM4PEJ, Cisbio Bioassays, Bedford, MA). An aliquot of CHO-K1 cells stably expressing recombinant human GPR52 was thawed and resuspended in cell buffer (1×PBS (w/o Ca^2+/Mg^2+)) at a density of 4×10^5 cells per mL. Test compounds were solubilized in DMSO to 10 mM stock solutions and serially diluted in DMSO using 6-fold dilutions to generate 8-point dose response curves. These serially diluted samples were then diluted 1:50 in compound dilution buffer (1×PBS (w/o Ca^2+/Mg^2+) containing 0.5 mM IBMX, 0.1% BSA) to achieve a 4× stock. The diluted compounds were transferred (5 μL per well) in duplicate to the 384-well assay plate (Optiplate #6007290, PerkinElmer, Waltham, MA). Both a positive (reference compound) and negative (non-stimulated vehicle) control was included in each assay run in column 23. The cell suspension was subsequently dispensed into the 384-well assay plates at 15 μL per well (6000 cells) such that the compound was diluted to 1×. […] After a one-hour incubation at room temperature, 10 μL of cAMP D2 reagent followed by 10 μL of cryptate reagent (provided in the Cisbio kit) was added to each well. Plates were then incubated at room temperature for one hour prior to reading. Time-resolved fluorescence measurements were collected on an EnVision® HTRF plate reader (PerkinElmer, Waltham, MA). Counts from the plate reader were fit to the cAMP standard curve included on each plate to determine the amount of cAMP in each test well. The % control was calculated based on the […]. Dose-response curves were generated from the cAMP data and analyzed using a nonlinear least squares curve-fitting program to obtain EC50 values.

human hepatocytes = test: Metabolic stability in human hepatocytes; type: in vitro ADME; conditions: human hepatocyte suspension, 1 μM; predicted hepatic clearance as percentage of hepatic blood flow
Procedure: The metabolic degradation of a test compound was assayed in a human hepatocyte suspension. After recovery from cryopreservation, human hepatocytes were diluted in Dulbecco's modified eagle medium (supplemented with 3.5 μg glucagon/500 mL, 2.5 mg insulin/500 mL, 3.75 mg hydrocortisone/500 mL, 5% human serum) to obtain a final cell density of 1.0×10^6 cells/mL or 4.0×10^6 cells/mL, depending on the metabolic turnover rate of the test compound.
Following a 30 minutes preincubation in a cell culture incubator (37° C., 10% CO2), test compound solution was spiked into the hepatocyte suspension, resulting in a final test compound concentration of 1 μM and a final DMSO concentration of 0.05% (v/v).
The cell suspension was incubated at 37° C. (cell culture incubator, horizontal shaker) and samples were removed from the incubation after 0, 0.5, 1, 2, 4 and 6 hours. Samples were quenched with acetonitrile (containing internal standard) and pelleted by centrifugation. The supernatant was transferred to a 96-deepwell plate, and prepared for analysis of decline of parent compound by HPLC-MS/MS.
The percentage of remaining test compound was calculated using the peak area ratio (test compound/internal standard) of each incubation time point relative to the time point 0 peak area ratio. The log-transformed data were plotted versus incubation time, and the absolute value of the slope obtained by linear regression analysis was used to estimate in vitro half-life (T1/2).
In vitro intrinsic clearance (CLint) was calculated from in vitro T1/2 and scaled to whole liver using a hepatocellularity of 120×10^6 cells/g liver, a human liver per body weight of 25.7 g liver/kg as well as in vitro incubation parameters, applying the following equation: CL_[…]_IN VIVO[mL/min/kg]=(CL_[…][μL/min/10^6 cells]×hepatocellularity[10^6 cells/g liver]×liver factor[g/kg body weight])/1000
Hepatic in vivo blood clearance (CL) was predicted according to the well-stirred liver model considering an average liver blood flow (QH) of 20.7 mL/min/kg: CL[mL/min/kg]=CL_[…]_IN VIVO[mL/min/kg]×hepatic blood flow[mL/min/kg]/(CL_[…]_IN VIVO[mL/min/kg]+hepatic blood flow[mL/min/kg])
Results were expressed as percentage of hepatic blood flow: QH[%]=CL[mL/min/kg]/hepatic blood flow[mL/min/kg])

hERG channel = hERG channel (Homo sapiens (Human), UniProt Q12809); test: hERG channel assay (whole-cell patch clamp); type: cell-based; conditions: HEK293 cells stably transfected with hERG cDNA
Sequence of hERG channel (Q12809 whole entry): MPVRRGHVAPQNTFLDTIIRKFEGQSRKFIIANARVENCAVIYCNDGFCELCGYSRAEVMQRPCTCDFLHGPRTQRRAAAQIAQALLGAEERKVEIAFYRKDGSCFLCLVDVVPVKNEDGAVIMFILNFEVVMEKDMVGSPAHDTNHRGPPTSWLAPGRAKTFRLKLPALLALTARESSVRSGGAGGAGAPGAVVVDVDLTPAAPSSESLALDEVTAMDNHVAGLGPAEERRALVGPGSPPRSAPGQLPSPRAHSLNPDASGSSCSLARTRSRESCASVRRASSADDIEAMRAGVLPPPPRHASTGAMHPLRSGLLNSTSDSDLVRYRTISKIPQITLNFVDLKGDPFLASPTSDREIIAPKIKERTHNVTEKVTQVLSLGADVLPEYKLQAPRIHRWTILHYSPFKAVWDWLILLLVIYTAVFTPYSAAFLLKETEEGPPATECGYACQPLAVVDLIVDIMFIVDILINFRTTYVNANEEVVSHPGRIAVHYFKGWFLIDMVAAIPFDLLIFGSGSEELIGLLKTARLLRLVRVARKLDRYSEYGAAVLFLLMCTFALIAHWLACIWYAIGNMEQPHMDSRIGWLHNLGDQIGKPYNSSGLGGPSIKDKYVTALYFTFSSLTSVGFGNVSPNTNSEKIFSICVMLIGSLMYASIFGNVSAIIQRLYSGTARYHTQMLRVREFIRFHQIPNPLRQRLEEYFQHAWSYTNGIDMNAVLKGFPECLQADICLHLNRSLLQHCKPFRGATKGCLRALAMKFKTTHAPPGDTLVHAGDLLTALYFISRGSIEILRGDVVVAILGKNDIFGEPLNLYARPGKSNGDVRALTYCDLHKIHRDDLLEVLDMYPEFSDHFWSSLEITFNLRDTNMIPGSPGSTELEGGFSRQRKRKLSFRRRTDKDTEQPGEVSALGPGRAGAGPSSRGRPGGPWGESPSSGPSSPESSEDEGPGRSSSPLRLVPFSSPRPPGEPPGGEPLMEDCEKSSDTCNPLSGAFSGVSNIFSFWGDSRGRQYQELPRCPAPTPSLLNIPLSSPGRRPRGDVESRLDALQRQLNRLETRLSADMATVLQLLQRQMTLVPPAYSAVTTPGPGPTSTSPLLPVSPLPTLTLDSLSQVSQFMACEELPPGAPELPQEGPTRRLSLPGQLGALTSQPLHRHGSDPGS
Description: hERG Channel inhibition of compounds of the present invention was investigated as follows:
HEK (human embryonic kidney) 293 cells were stably transfected with hERG cDNA. Cells determined for use in patch clamp experiments were cultivated without antibiotic.
Cells were superfused with a bath solution containing (mM): NaCl (137), KCl (4.0), MgCl2 (1.0), CaCl2(1.8), Glucose (10), HEPES (10), pH 7.4 with NaOH. Patch pipettes were made from borosilicate glass tubing using a pipette and filled with pipette solution containing (mM): K-aspartate (130), MgCl2(5.0), EGTA (5.0), K2ATP (4.0), HEPES (10.0), pH 7.2 with KOH. Resistance of the microelectrodes was typically in the range between 2 MΩ and 5 MΩ.
Membrane currents were recorded using an EPC-10 patch clamp amplifier (HEKA Electronics, Lambrecht, FRG) and PatchMaster software (HEKA). hERG-mediated membrane currents were recorded at typically 28° C., using the whole-cell configuration of the patch-clamp technique. Transfected HEK293 cells were clamped at a holding potential of −60 mV and hERG-mediated inactivating tail currents were elicited using a pulse pattern with fixed amplitudes (activation/inactivation: 40 mV for 2000 ms; recovery: 120 mV for 2 ms; ramp to 40 mV in 2 ms; inactivating tail current: 40 mV for 50 ms) repeated at 15 s intervals. During each inter-pulse interval 4 pulses scaled down by a factor of 0.2 were recorded for a P/n leak subtraction procedure. Rs compensation was employed up to a level that safely allows recording devoid of ringing. The remaining uncompensated Rs was recorded as well as actual temperature and holding current.
The concentrations of the test item were applied sequentially on each of the different cells investigated. A steady state level of baseline current was measured for at least 5 sweeps prior to the application of the first test article concentration. The test item was dissolved in DMSO to yield a stock solution of 1000-fold the highest final concentration. This stock was diluted further in DMSO to stock solutions of 1000-fold the remaining final concentrations. Final dilutions in extracellular buffer were prepared freshly from these stocks by a 1:1000 dilution step each before starting the experiments.
Peak current amplitudes were measured 3 ms after the ramp to +40 mV. For baseline and each concentration, the peak currents of the three last sweeps before application of the next concentration were averaged. Residual currents (I/I0) were calculated for each cell as the fraction of actual average peak current and average baseline peak current. Current inhibition was expressed as […]. Current inhibition for all cells was reported as mean ±SD. If possible, from mean current inhibition data the IC50 was estimated based on the Hill equation using a least squares procedure.

| Structure (SMILES) | Hu PPB (human plasma proteins) [% bound] | EC50 (human GPR52) [nM] | Human HepStab (human hepatocytes) [% QH] | IC50 (hERG channel) [nM] |
| --- | --- | --- | --- | --- |
| CCC(=O)N1CC(NC(=O)c2nccnc2N2CC(Oc3ccc(F)c(F)c3)C2)C(F)(F)C1 (stereo not shown) [Example 2] | 89.9 | 24 | 21.3 | 6600 |
| CC(=O)N1CC[C@H](NC(=O)c2nsnc2N2CC(Oc3cc(F)cc(F)c3)C2)C1 [Example 15b] | – | 168 | – | – |
| CC(=O)N1CCC(NC(=O)c2nsnc2N2CC(Oc3ccc(F)c(F)c3)C2)C1 (stereo not shown) [Example 16a] | 86.2 | 11 | <4.1 | > 10000 |
| CC(=O)N1CC(F)C(NC(=O)c2nsnc2N2CC(Oc3ccc(F)c(F)c3)C2)C1 (single isomer, unassigned) [Example 14b] | 89.7 | 11 | – | > 10000 |
| CC(=O)N1C[C@@H](NC(=O)c2nccnc2N2CC(Oc3cc(F)cc(F)c3)C2)C(F)(F)C1 [Example 10b] | – | 1330 | – | – |
| CC(=O)N1CC2(NC(=O)c3nsnc3N3CC(Oc4cc(F)c(F)c(F)c4)C3)CC1C2 [Example 12] | 88.5 | 24 | 5.0 | > 10000 |
| CC(=O)N1CC(NC(=O)c2nccnc2N2CC(Oc3ccc(F)c(Cl)c3)C2)C(F)(F)C1 (racemic) [Example 1] | 92.6 | 15 | 11.1 | > 10000 |
| O=C(NC1CNCC1(F)F)c1nccnc1N1CC(Oc2cc(F)c(F)c(F)c2)C1 (racemic) [Intermediate H-3] | 88.2 | 378 | 27.7 | – |
| CC(=O)N1CC(F)C(NC(=O)c2nsnc2N2CC(Oc3ccc(F)c(F)c3)C2)C1 (stereo not shown) [Example 14b] | – | – | <4.1 | – |
| CC(=O)N1CCC(NC(=O)c2nsnc2N2CC(Oc3ccc(F)c(F)c3)C2)C1 (single isomer, unassigned) [Example 16b] | – | 210 | – | > 10000 |
| CC(=O)N1CC(NC(=O)c2nccnc2N2CC(Oc3cc(F)cc(OC(F)F)c3)C2)C(F)(F)C1 (racemic) [Example 7] | – | 102 | 15.4 | – |
| [2H]C([2H])([2H])C(=O)N1CC(NC(=O)c2nccnc2N2CC(Oc3ccc(F)c(F)c3)C2)C(F)(F)C1 (racemic) [Example 4] | 79.2 | 18 | 8.5 | > 10000 |
| CC(=O)N1CC(NC(=O)c2nccnc2N2CC(Oc3cc(F)cc(C(F)F)c3)C2)C(F)(F)C1 (stereo not shown) [Example 6] | 87.8 | 54 | 4.8 | > 10000 |
| CS(=O)(=O)N1CC(NC(=O)c2nccnc2N2CC(Oc3cc(F)c(F)c(F)c3)C2)C(F)(F)C1 (racemic) [Example 9] | 93.4 | 19 | 5.8 | > 10000 |
| CC(=O)N1CC(NC(=O)c2nccnc2N2CC(Oc3cc(F)cc(Cl)c3)C2)C(F)(F)C1 (racemic) [Example 5] | 93.2 | 27 | 17.0 | > 10000 |
| CC(=O)N1CC(F)C(NC(=O)c2nsnc2N2CC(Oc3ccc(F)c(F)c3)C2)C1 (single isomer, unassigned) [Example 14a] | – | 1170 | – | – |
